Starred links: 1 amine or outer side, 2 acyl side, 3 side chain; linkers in the order of their positions; H or OH if unused. Non-standard residues stand in square brackets, D forms with d. Residues, ends and D or L forms follow the SMILES beside them. X1 = CC[C@@H](C)[C@@H](O[*:1])C(=O)[*:2]; NMeVal(β-OH) = CN[C@H](C(=O)O)C(C)(C)O; NMeF = CN[C@@H](Cc1ccccc1)C(=O)O; aIle = CC[C@@H](C)[C@H](N)C(=O)O; NMeV = CN[C@H](C(=O)O)C(C)C
Legend:
[1] = test system: insect stage Leishmania; assay: Effect on insect stage Leishmania in culture; assay type: cell-based; settings: 20 μM; data not shown
[2] = test system: YPH499-HIS-GAL-AUR1 complemented with ScIPCS; assay: Agar diffusion assay, yeast mutant rescued with ScIPCS; assay type: cell-based, S. cerevisiae; settings: FIG. 5A; 25 μM Aureobasidin A, 1 mM myriocin, 25 μM cycloheximide spotted
Experimental: (§1) A. Volumes of 1, 2 and 3 μl of 25 μM Aureobasidin A (AbA), 1 mM myriocin (MYR), 25 μM cycloheximide (CYC) and DMSO as a control (CTL) spotted onto yeast plates prepared as described in Experimental Procedures. B. Volumes of 1, 2 and 3 μl of 100 μM Aureobasidin A spotted onto yeast plates prepared as described in Experimental Procedures.
(§2) YPH499—wild type yeast; ScIPCS—YPH499-HIS-GAL-AUR1 pRS426 ScIPCS; LmIPCS—YPH499-HIS-GAL-AUR1 pRS426 LmIPCS; AGD—yeast sphingolipid bypass mutant, negative control.
(§3) Agar diffusion assay—Wild type YPH499 yeast and the transgenic strain YPH499-HIS-GAL-AUR1 complemented with ScIPCS or LmIPCS were assayed for susceptibility to Aureobasidin A (Takara), myriocin (Sigma) and cycloheximide (Sigma) as previously described (19). Briefly, 2.4×10^7 logarithmically dividing cells were embedded in 15 ml of YPD agararose (2% dextrose, 1% yeast extract, 2% peptone, 0.8% agarose) on […] square Petri dishes (Sarstedt). Inhibitors were applied in DMSO at the concentrations described below and the dishes incubated at 30° C.
(§4) In this study, the diffusion assay system previously described, with the sphingolipid bypass mutant (AGD) as a negative control, was utilized (6,19).

[3] = test system: T. cruzi enzyme (TcIPCS); settings: even at levels 1000 fold higher than that which inhibit the S. cerevisiae enzyme; crude parasite membrane extracts; cited from earlier work
[4] = target: T1, IPC synthase (Saccharomyces cerevisiae, UniProt P36107); settings: with respect to ceramide; cited from earlier work
T1 sequence (P36107 1-401): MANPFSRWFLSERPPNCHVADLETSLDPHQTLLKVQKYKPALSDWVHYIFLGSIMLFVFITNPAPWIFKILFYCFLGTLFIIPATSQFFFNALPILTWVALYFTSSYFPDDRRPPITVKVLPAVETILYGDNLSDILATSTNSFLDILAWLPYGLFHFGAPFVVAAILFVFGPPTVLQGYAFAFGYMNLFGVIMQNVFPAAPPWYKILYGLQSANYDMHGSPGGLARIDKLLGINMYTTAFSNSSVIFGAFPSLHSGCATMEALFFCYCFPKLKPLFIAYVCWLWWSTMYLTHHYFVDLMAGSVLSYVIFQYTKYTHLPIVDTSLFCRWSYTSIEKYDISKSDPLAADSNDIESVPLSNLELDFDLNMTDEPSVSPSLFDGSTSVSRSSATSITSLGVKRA
T1 sequence (Q06346 1-221 partner): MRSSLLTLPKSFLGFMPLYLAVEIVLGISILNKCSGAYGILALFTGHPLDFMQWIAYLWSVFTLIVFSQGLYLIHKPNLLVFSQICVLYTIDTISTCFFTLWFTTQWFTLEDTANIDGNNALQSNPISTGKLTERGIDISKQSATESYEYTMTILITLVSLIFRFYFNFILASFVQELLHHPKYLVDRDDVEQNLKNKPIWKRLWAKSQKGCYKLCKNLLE

[5] = test system: YPH499-HIS-GAL-AUR1 complemented with LmIPCS; assay: Agar diffusion assay, yeast mutant rescued with LmIPCS; assay type: cell-based, S. cerevisiae
Experimental: as §1, §2, §3, §4

[6] = test system: parasites without an active sphingolipid biosynthetic pathway; assay: Effect on Leishmania parasites without an active sphingolipid biosynthetic pathway; assay type: cell-based; settings: 20 μM; data not shown
[7] = test system: Wild type YPH499 yeast; assay: Agar diffusion assay, wild type yeast; assay type: cell-based, S. cerevisiae; settings: FIG. 5A; 25 μM Aureobasidin A, 1 mM myriocin, 25 μM cycloheximide spotted
Experimental: as §1, §2, §3, §4

[8] = test system: AGD yeast sphingolipid bypass mutant; assay: Agar diffusion assay, sphingolipid bypass mutant (negative control); assay type: cell-based, S. cerevisiae; settings: 100 μM Aureobasidin A
Experimental: as §1, §2, §3, §4

[9] = test system: samples from fungal Aspergillus spp.; settings: lack of susceptibility attributed to efflux; cited from earlier work
[10] = FIG. 5A, 1, 2 and 3 μl of 25 μM Aureobasidin A, 1 mM myriocin, 25 μM cycloheximide spotted, 30° C.

Compound: CC[C@@H](C)[C@@H]1NC(=O)[C@@H]2CCCN2C(=O)[C@H](Cc2ccccc2)N(C)C(=O)[C@H](Cc2ccccc2)NC(=O)[C@H](C(C)C)N(C)C(=O)[C@@H]([C@H](C)CC)OC(=O)[C@H](C(C)(C)O)N(C)C(=O)[C@H](CC(C)C)NC(=O)[C@H](C(C)C)N(C)C1=O [Aureobasidin A] (cyclo(F[NMeF]P[aIle][NMeV]L[NMeVal(β-OH)][X1][NMeV]))
- effect against insect stage Leishmania in culture [1]: exhibited an effect
- specificity of the inhibitor in Leishmania culture [1]: non-specific
- susceptibility in agar diffusion assay [2]: sensitive
- T. cruzi enzyme activity [3]: unaffected
- mode of inhibition [4]: non-competitive inhibitor
- susceptibility in agar diffusion assay [5, 10]: resistant
- susceptibility in agar diffusion assay ([5]; FIG. 5B, 100 μM Aureobasidin A, 1, 2 and 3 μl spotted): sensitivity of LmIPCS to the drug was evident
- activity against parasites in which LmIPCS is redundant, relative to insect stage Leishmania [6]: equivalent activity
- susceptibility in agar diffusion assay [7]: sensitive
- inhibitory effect on growth [8]: lack of an inhibitory effect
- susceptibility of Aspergillus spp. samples [9]: only susceptible to Aureobasidin A in the presence of mammalian multi-drug resistance modulators

Compound: C[C@@H]1C[C@@H]([C@H](O)CC2CC(=O)NC(=O)C2)C(=O)[C@@H](C)C1 [cycloheximide]
- susceptibility in agar diffusion assay [2]: sensitive
- susceptibility in agar diffusion assay [5, 10]: sensitive
- susceptibility in agar diffusion assay [7]: sensitive

Compound: CCCCCCC(=O)CCCCCC/C=C/C[C@@H](O)[C@H](O)[C@@](N)(CO)C(=O)O [myriocin]
- susceptibility in agar diffusion assay [2]: sensitive
- sensitivity compared with wild-type or mutant rescued with ScIPCS ([5]; FIG. 5A, 1 mM myriocin): increased sensitivity
- susceptibility in agar diffusion assay [5, 10]: sensitive
- susceptibility in agar diffusion assay [7]: sensitive

Compound: C=C1/C=C(\C)[C@H](CC)CC(=O)[C@H](C)C(=O)[C@@](O)(CO)C/C(OC)=C/[C@@H](C)C1 [rustmicin]
- T. cruzi enzyme activity [3]: unaffected
